# Legend:
# AKT (T308) = assay: Phospho-AKT (T308) in PC-3 cell lysates, MSD (Compound 2); format: cell-based; conditions: Homo sapiens; PC-3, 1 hour; read-out: PDK1 AKT (T308) IC50
# Procedure: The direct substrate for mTORC1 was 4E-BP1(T46) and the indirect downstream substrate was S6RP (S235/S236). The direct substrate for mTORC2 was AKT (S473) and the indirect downstream substrates measured were GSK3β(S9) and PRAS40 (T246). Additionally, the phosphorylation status of AKT (T308), a phosphorylation site for PDK1, was monitored. Concentration-response curves were plotted and IC50 values determined. Cells were plated in 96-well flat bottom plates at the required density (PC-3 cells/well) and the cells were allowed to equilibrate at 37° C., 5% CO2 overnight. […] After the incubation period, the culture media was removed carefully with an aspirator. The plate was placed on ice and 50 μL of 1× Tris Lysis Buffer was added to each well. The plate was placed on a shaker at 4° C. for 1 hour to lyse the cells. At that point, the plate was either frozen at -80° C. for later analysis or immediately assayed for phosphoproteins as described below. To monitor interassay variability, a reference standard was included in the assay for PC-3 cells and the coefficient of variation for assay of […]) was 9.3% (n=50) and for assay of p-AKT (S473) was 28.6% (n=50). The assay plate was incubated with 150 μL of MSD Blocking Buffer for 1 hour with shaking at room temperature. […] Then 150 μL of 1×MSD Read Buffer T was added to each well. The plate was read on the SECTOR Imager plate reader.
# Ki67 = Ki67 immunohistochemistry in PC3 tumors (Compound 2); format: in vivo, SCID mice; conditions: 5 mg/kg oral QD for 6 days, 2 hours after last dose
# pS6 = pS6 in PC3 tumors, MSD (Compound 1); format: in vivo, SCID mice; conditions: for pS6 inhibition in tumor: through 24 hours
# Procedure: The plasma and tumor samples were collected at various time points following compound administration as described.
# Mice were monitored daily for clinical signs and body weight changes. At the end of the study, mice were euthanized and plasma and tumor samples were collected for PK/PD determination. PD markers, pS6 and pAkt, were measured using MSD technology.
# After the last measurement, the experiment was terminated by taking the plasma and tumor samples for PK and PD measurements. Compound concentrations in plasma and tumor were determined by LC-MS/MS. PD markers, pS6 and pAkt, were measured using MSD technology.
# At predetermined time points following dosing, mice were euthanized and plasma and tumor samples were collected for PK/PD determination. Compound concentrations in plasma and tumor were determined by LC-MS/MS. PD markers, pS6 and pAkt, were measured using Mesoscale technology.
# For Mesoscale discovery assays, tissue samples were homogenized in lysis buffer containing protease and phosphatase inhibitors and centrifuged for 10 minutes at 1200 rpm at 4° C. Supernatants were sonicated for 1 minute at 4° C., aliquoted and stored at −80° C. Protein concentrations in samples were determined using BCA Protein Assay Reagent Kit (Thermo Scientific). Meso Scale Discovery kits and protocol for measuring the pS6 and pAkt/Total Akt kits were used. MSD 96-well plates spotted with pS6, pAkt/total Akt were blocked with blocking solution for 5 minutes followed by a wash with wash buffer. […] of tumor lysates were added to each well and incubated for 2 hours followed by a 4× wash with a wash buffer. Detection antibody was added to each well and incubated in the dark for 1 hour at 4° C. The plates were then washed and bound antigen was read using an MSD SECTOR™ instrument.
# PC3 cells = assay: WST-1 cell proliferation assay (Compound 1, rapamycin); format: cell-based, human; conditions: read-out: Compound 1 Growth Inhibition IC50; PC3, 3 days
# Procedure: All test wells were in triplicate on the plate and in a final volume of 200 μL. The final concentration of DMSO in all wells was 0.2%. […] All growth inhibition experiments were repeated on different occasions at least twice. Potency was determined from calculating the IC50 value from the data describing the growth inhibition curve. A reference compound was included in each plate assay to monitor inter-assay variation and the IC50 from the reference was used as part of the acceptance criteria for the assay.
# Next, compound was added to the designated well at a dilution of 1:10 (i.e., 20 μL of the diluted compound was added to 180 μL of culture media in each well). The final dilution of compound was 1:500 which yielded a final DMSO concentration of 0.2% in each well. All concentrations were performed in triplicate. […] Absorbance was measured at 450 nm on the VICTOR™ X2 multilabel plate reader (PerkinElmer).
# Raw data was saved as a text file and then entered into Activity Base (Cell-based SAR; Prolif-MTT, MTT-6pt-5plates unfixed fit. Version2). The software (XLfit from IDBS) calculated the percent inhibition at each compound concentration by normalizing to the DMSO control values for each set of triplicate wells. Percent inhibition curves were plotted and IC50 values calculated.
# All data was analyzed using XLfit from IDBS. […]
smiles,measurement,setting,value
"CCN1C(=O)CNc2ncc(-c3ccc(-c4nc[nH]n4)nc3C)nc21 [Compound 2, 1-ethyl-7-(2-methyl-6-(1H-1,2,4-triazol-3-yl)pyridin-3-yl)-3,4-dihydropyrazino[2,3-b]pyrazin-2(1H)-one]",IC50,AKT (T308),48 nM
same,reduction in the number of proliferating cells (Ki67) vs vehicle,Ki67,93%
"CO[C@H]1CC[C@H](N2C(=O)CNc3ncc(-c4ccc(C(C)(C)O)nc4)nc32)CC1 [Compound 1, 7-(6-(2-hydroxypropan-2-yl)pyridin-3-yl)-1-((1r,4r)-4-methoxycyclohexyl)-3,4-dihydropyrazino-[2,3-b]pyrazin-2(1H)-one]",inhibition of pS6,"pS6; 0.3 mg/kg single dose, 0.5 h, data not shown",81%
same,pS6 inhibition,"pS6; 0.3 mg/kg single dose, up to 2 hours, data not shown",Approximately 80%
same,pS6 inhibition,"pS6; 1 mg/kg single dose, up to 4 hours",Approximately 80%
same,PD Marker Inhibition (%) pS6,"pS6; 1 mg/kg single oral dose, 0.5 h",80.8%
same,PD Marker Inhibition (%) pS6,"pS6; 1 mg/kg single oral dose, 2 h",82.8%
same,PD Marker Inhibition (%) pS6,"pS6; 1 mg/kg single oral dose, 4 h",78.6%
same,PD Marker Inhibition (%) pS6,"pS6; 1 mg/kg single oral dose, 6 h",53.1%
same,PD Marker Inhibition (%) pS6,"pS6; 1 mg/kg single oral dose, 10 h",14.4%
same,PD Marker Inhibition (%) pS6,"pS6; 1 mg/kg single oral dose, 24 h",20.6%
same,inhibition of pS6 in tumors,"pS6; 10 mg/kg QD 5 days, 24 hours after the last dose",22%
same,inhibition of pS6,"pS6; 10 mg/kg single dose, up to 8 hours",> 80%
same,PD Marker Inhibition (%) pS6,"pS6; 10 mg/kg single oral dose, 1 h",79.5%
same,PD Marker Inhibition (%) pS6,"pS6; 10 mg/kg single oral dose, 3 h",91.9%
same,PD Marker Inhibition (%) pS6,"pS6; 10 mg/kg single oral dose, 8 h",91.2%
same,PD Marker Inhibition (%) pS6,"pS6; 10 mg/kg single oral dose, 16 h",32.4%
same,PD Marker Inhibition (%) pS6,"pS6; 10 mg/kg single oral dose, 24 h",32.7%
same,PD Marker Inhibition (%) pS6,"pS6; 10 mg/kg single oral dose, 48 h",39.5%
same,PD Marker Inhibition (%) pS6,"pS6; 10 mg/kg single oral dose, 72 h",47.9%
same,inhibition of pS6 levels,"pS6; 25 mg/kg single dose, up to 24 hours",> 80%
same,PD Marker Inhibition (%) pS6,"pS6; 25 mg/kg single oral dose, 1 h",87.9%
same,PD Marker Inhibition (%) pS6,"pS6; 25 mg/kg single oral dose, 3 h",95.1%
same,PD Marker Inhibition (%) pS6,"pS6; 25 mg/kg single oral dose, 8 h",92.3%
same,PD Marker Inhibition (%) pS6,"pS6; 25 mg/kg single oral dose, 16 h",92.1%
same,PD Marker Inhibition (%) pS6,"pS6; 25 mg/kg single oral dose, 24 h",83.7%
same,PD Marker Inhibition (%) pS6,"pS6; 25 mg/kg single oral dose, 48 h",47.2%
same,PD Marker Inhibition (%) pS6,"pS6; 25 mg/kg single oral dose, 72 h",68.3%
same,pS6 inhibition in tumor,pS6; 30 mg/kg single oral dose,78%
same,pS6 inhibition in tumor,pS6; 100 mg/kg single oral dose,91%
same,"both PD markers (pS6, pAKT) in tumors","pS6; 25 and 50 mg/kg QD, 24 hr timepoint, data not shown",significantly inhibited
same,IC50,PC3 cells,110 nM
